One test has as its target T1, human H3 receptor (Homo sapiens, UniProt Q9Y5N1).
T1 construct: expressed in transfected cells
As to the kind of experiment: Human H3 radioligand binding ([3H]-N-alpha-methylhistamine, CHO cell membranes). Conditions: Human H3 binding constant, class symbols; read-out: hH3 Ki. On the procedure:
(§1) Methods: CHO cells stably expressing the human H3 receptor (GenBank: NM_007232) were harvested and cell pellets were frozen (−80° C.). Cell pellets were resuspended in 5 mM Tris-HCl, pH 7.5 with 5 nM EDTA and a cocktail of protease inhibitors (Complete Protease Inhibitor Tablets, Roche Diagnostics). Cells were disrupted using a polytron cell homogenizer and the suspension was centrifuged at 1000×g for 10 minutes at 4° C. The pellet was discarded and the supernatant centrifuged at 40,000×g for 30 min at 4° C. This membrane pellet was washed in membrane buffer containing 50 mM Tris-HCl, pH 7.5 with 0.6 mM EDTA, 5 mM MgCl2 and protease inhibitors, recentrifuged as above and the final pellet resuspended in membrane buffer plus 250 mM sucrose and frozen at −80° C.
(§2) Radioligand Binding. Membranes were resuspended in 50 mM Tris HCl (pH 7.4), 5 mM MgCl2, 0.1% BSA. The membrane suspensions (10 μg protein per well) were incubated in a 96 well microtiter plate with [^3H]-N-alpha-methylhistamine (approximately 1 nM final concentration), test compounds at various concentrations (0.01 nM-30 μM) and scintillation proximity beads (Perkin Elmer, FlashBlueGPCR Scintillating Beads) in a final volume of 80 μl for 4 hours at room temperature, protected from light. Non-specific binding was determined in the presence of 10 μM clobenpropit. Radioligand bound to receptor, and therefore in proximity to the scintillation beads, was measured using a MicroBeta scintillation counter.

The target in test [1] is T2, rat histamine H3 receptor (Rattus norvegicus, UniProt Q9QYN8).
T2 construct: encoding the entire 445-amino-acid rat histamine H3 receptor; expressed in transfected cells
T2 sequence (Q9QYN8 whole entry): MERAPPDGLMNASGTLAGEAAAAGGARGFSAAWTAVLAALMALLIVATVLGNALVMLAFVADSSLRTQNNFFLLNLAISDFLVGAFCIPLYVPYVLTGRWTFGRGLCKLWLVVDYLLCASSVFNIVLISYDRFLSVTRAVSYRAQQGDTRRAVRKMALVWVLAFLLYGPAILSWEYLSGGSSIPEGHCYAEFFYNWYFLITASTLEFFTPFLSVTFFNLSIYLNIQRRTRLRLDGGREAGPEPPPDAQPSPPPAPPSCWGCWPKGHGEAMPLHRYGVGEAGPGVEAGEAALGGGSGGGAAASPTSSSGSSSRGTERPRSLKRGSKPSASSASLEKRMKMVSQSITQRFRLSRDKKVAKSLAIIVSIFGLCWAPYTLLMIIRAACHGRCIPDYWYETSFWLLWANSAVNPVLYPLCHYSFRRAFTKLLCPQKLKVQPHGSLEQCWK
As to the kind of experiment: Rat H3 radioligand binding ([3H]-N-alpha-methylhistamine, CHO-A3 cell membranes). Conditions: Rat H3 binding constant, class symbols; read-out: rH3 Ki.
Excerpt: as §1, with “Cell line development and membrane preparation. The rat” for “Methods: CHO cells stably expressing the human”, “cDNA was PCR amplified from reverse-transcribed RNA pooled from rat thalamus, hypothalamus, striatum and prefrontal cortex with a sequence corresponding to by #338-1672 of Genbank file #NM_053506, encoding the entire 445-amino-acid rat histamine H3 receptor. This was engineered into the pIRES-neo3 mammalian expression vector, which was stably transfected into the CHO-A3 cell line (Euroscreen, Belgium), followed by clonal selection by limiting dilution. Cells” for “(GenBank: NM_007232)”
as §2

Each structure is given as a SMILES string. Where a name gives a salt, the structure may show the parent alone.

By Ki is commonly meant a dissociation constant, usually derived from enzyme kinetics or from competition with a known ligand.

T1 sequence (Q9Y5N1 whole entry): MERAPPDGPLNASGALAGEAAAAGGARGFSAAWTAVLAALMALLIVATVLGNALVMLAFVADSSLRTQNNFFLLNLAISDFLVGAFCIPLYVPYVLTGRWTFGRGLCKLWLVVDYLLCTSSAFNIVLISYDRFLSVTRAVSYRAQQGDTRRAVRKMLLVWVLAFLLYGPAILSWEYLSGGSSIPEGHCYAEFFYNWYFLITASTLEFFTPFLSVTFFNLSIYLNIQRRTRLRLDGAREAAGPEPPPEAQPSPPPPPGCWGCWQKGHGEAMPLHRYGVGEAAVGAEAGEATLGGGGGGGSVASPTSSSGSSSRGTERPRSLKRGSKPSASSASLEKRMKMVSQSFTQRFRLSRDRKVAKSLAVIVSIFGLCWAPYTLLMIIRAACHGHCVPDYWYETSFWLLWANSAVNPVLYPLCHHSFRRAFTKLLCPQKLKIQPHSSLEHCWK

Consider `CC(C)N1N=C(c2ccc3c(c2)CCNCC3)CCC1=O` [Example 3, 2-Isopropyl-6-(2,3,4,5-tetrahydro-1H-benzo[d]azepin-7-yl)-4,5-dihydro-2H-pyridazin-3-one], for which the Ki (at human H3 receptor; in test [1]) was 100 to 1000 nM throughout.

For the compound `CC(C)n1nc(-c2ccc3c(c2)CCNCC3)ccc1=O` [Example 5, 2-Isopropyl-6-(2,3,4,5-tetrahydro-1H-benzo[d]azepin-7-yl)-2H-pyridazin-3-one], the Ki (at human H3 receptor; in test [1]) was 100 to 1000 nM throughout.

As for `CC(C)N1CCc2ccc(-c3ccc(=O)n(C)n3)cc2CC1` [Example 22, 6-(3-Isopropyl-2,3,4,5-tetrahydro-1H-benzo[d]azepin-7-yl)-2-methyl-2H-pyridazin-3-one. HCl], the Ki (at human H3 receptor; in test [1]) was 100 to 1000 nM each time.

Consider `Cn1nc(-c2ccc3c(c2)CCN(C2CCCC2)CC3)ccc1=O` [Example 23, 6-(3-Cyclopentyl-2,3,4,5-tetrahydro-1H-benzo[d]azepin-7-yl)-2-methyl-2H-pyridazin-3-one. HCl], for which the Ki on human H3 receptor was less than 100 nM; in test [1] it was 100 to 1000 nM.

In the case of `CS(=O)(=O)c1ccc(-n2nc(-c3ccc4c(c3)CCNCC4)ccc2=O)cc1` [Example 24, 2-(4-Methanesulfonyl-phenyl)-6-(2,3,4,5-tetrahydro-1H-benzo[d]azepin-7-yl)-2H-pyridazin-3-one], the Ki on human H3 receptor is greater than 1000 nM.

On to `Cn1ncc(Oc2ccc3c(c2)CCN(C2CCC2)CC3)c(Cl)c1=O` [Example 30, 4-Chloro-5-(3-cyclobutyl-2,3,4,5-tetrahydro-1H-benzo[d]azepin-7-yloxy)-2-methyl-2H-pyridazin-3-one], for which the Ki (at human H3 receptor; in test [1]) was less than 100 nM throughout.

Turning to `Cn1ncc(Oc2ccc3c(c2)CCN(C2CCC2)CC3)c(Br)c1=O` [Example 31, 4-Bromo-5-(3-cyclobutyl-2,3,4,5-tetrahydro-1H-benzo[d]azepin-7-yloxy)-2-methyl-2H-pyridazin-3-one], the Ki (on human H3 receptor; in test [1]) was less than 100 nM each time.

In the case of `Cn1ncc(Oc2ccc3c(c2)CCN(C2CCCC2)CC3)c(Br)c1=O` [Example 32, 4-Bromo-5-(3-cyclopentyl-2,3,4,5-tetrahydro-1H-benzo[d]azepin-7-yloxy)-2-methyl-2H-pyridazin-3-one], the Ki (at human H3 receptor; in test [1]) was less than 100 nM each time.

Consider `O=c1c(Cl)c(Oc2ccc3c(c2)CCN(C2CCC2)CC3)cnn1-c1ccccn1` [Example 33, 4-Chloro-5-(3-cyclobutyl-2,3,4,5-tetrahydro-1H-benzo[d]azepin-7-yloxy)-2-pyridin-2-yl-2H-pyridazin-3-one], for which the Ki (on human H3 receptor; in test [1]) was less than 100 nM each time.

For the compound `O=c1c(Cl)c(Oc2ccc3c(c2)CCN(C2CCC2)CC3)cnn1CC(F)(F)F` [Example 34, 4-Chloro-5-(3-cyclobutyl-2,3,4,5-tetrahydro-1H-benzo[d]azepin-7-yloxy)-2-(2,2,2-trifluoro-ethyl)-2H-pyridazin-3-one], the figures for the Ki (on human H3 receptor; in test [1]) were less than 100 nM and 100 to 1000 nM, respectively.

As for `Cn1ncc(Oc2ccc3c(c2)CCN(C2CCC2)CC3)cc1=O` [Example 35, 5-(3-Cyclobutyl-2,3,4,5-tetrahydro-1H-benzo[d]azepin-7-yloxy)-2-methyl-2H-pyridazin-3-one], the Ki on human H3 receptor is less than 100 nM; in test [1] it was 100 to 1000 nM.

As to `Cn1ncc(Oc2ccc3c(c2)CCN(C2CCCC2)CC3)cc1=O` [Example 36, 5-(3-Cyclopentyl-2,3,4,5-tetrahydro-1H-benzo[d]azepin-7-yloxy)-3-methyl-2H-pyridazin-3-one], the Ki is less than 100 nM at human H3 receptor and 100 to 1000 nM in test [1].

Consider `COCn1ncc(Oc2ccc3c(c2)CCN(C2CCC2)CC3)cc1=O` [Example 37, 5-(3-Cyclobutyl-2,3,4,5-tetrahydro-1H-benzo[d]azepin-7-yloxy)-2-methoxymethyl-2H-pyridazin-3-one], for which the values for the Ki (at human H3 receptor; in test [1]) were less than 100 nM and 100 to 1000 nM, respectively.

Consider `COCn1ncc(Oc2ccc3c(c2)CCN(C2CCCC2)CC3)cc1=O` [Example 38, 5-(3-Cyclopentyl-2,3,4,5-tetrahydro-1H-benzo[d]azepin-7-yloxy)-2-methoxymethyl-2H-pyridazin-3-one], for which the Ki on human H3 receptor is less than 100 nM; in test [1], 100 to 1000 nM.

As to `O=C1NN=C(c2ccc3c(c2)CCNCC3)C2CC12` (stereo not shown) [Example 39, 5-(2,3,4,5-Tetrahydro-1H-benzo[d]azepin-7-yl)-3,4-diaza-bicyclo[4.1.0]hept-4-en-2-one], the Ki (at human H3 receptor; in test [1]) was 100 to 1000 nM in each case.

Regarding `O=C1NN=C(c2ccc3c(c2)CCN(C2CCC2)CC3)C2CC12` (stereo not shown) [Example 40, 5-(3-Cyclobutyl-2,3,4,5-tetrahydro-1H-benzo[d]azepin-7-yl)-3,4-diaza-bicyclo[4.1.0]hept-4-en-2-one], the inhibition constant Ki at human H3 receptor is less than 100 nM; in test [1], 100 to 1000 nM.

In the case of `O=C1NN=C(c2ccc3c(c2)CCNCC3)C2CCCC12` (stereo not shown) [Example 41, 4-(2,3,4,5-Tetrahydro-1H-benzo[d]azepin-7-yl)-2,4-a,5,6,7,7a-hexahydro-cyclopenta[d]pyridazin-1-one], the Ki (on human H3 receptor; in test [1]) was 100 to 1000 nM throughout.

On to `Cn1nc(-c2ccc(C(=O)N3CCC[C@H]3CN3CCCC3)cc2)ccc1=O` [Example 45, 2-Methyl-6-[4-((S)-2-pyrrolidin-1-ylmethyl-pyrrolidine-1-carbonyl)-phenyl]-2H-pyridazin-3-one], for which the Ki (on human H3 receptor; in test [1]) was less than 100 nM in each case.

Take `Cn1nc(-c2ccc(C(=O)N3CCN4CCC[C@H]4C3)cc2)ccc1=O` [Example 48, 6-[4-((S)-Hexahydro-pyrrolo[1,2-a]pyrazine-2-carbonyl)-phenyl]-2-methyl-2H-pyridazin-3-one]: the Ki (on human H3 receptor; in test [1]) was 100 to 1000 nM each time.

Consider `O=C(c1ccc(-c2ccc(=O)n(-c3ccc(F)cc3)n2)cc1)N1CCC[C@H]1CN1CCCC1` [Example 49, 2-(4-Fluoro-phenyl)-6-[4-((S)-2-pyrrolidin-1-ylmethyl-pyrrolidine-1-carbonyl)-phenyl]-2H-pyridazin-3-one], for which the Ki was less than 100 nM on human H3 receptor and 100 to 1000 nM in test [1].

Consider `C[C@@H]1CCCN1CCc1ccc(-c2ccc(=O)n(-c3ccc(Cl)cc3)n2)cc1` [Example 52], for which the Ki (at human H3 receptor; in test [1]) was less than 100 nM throughout.

`C[C@@H]1CCCN1CCc1ccc(-c2ccc(=O)n(Cc3ccccc3)n2)cc1` [Example 53]: the Ki (on human H3 receptor; in test [1]) was less than 100 nM each time.

Take `CC(C)N(C)CCc1ccc(-c2ccc(=O)n(C)n2)cc1` [Example 54]: the Ki (on human H3 receptor; in test [1]) was 100 to 1000 nM throughout.

In the case of `CN(CCc1ccc(-c2ccc(=O)n(C)n2)cc1)C1CCCCC1` [Example 55], the Ki (at human H3 receptor; in test [1]) was 100 to 1000 nM each time.

As for `CCN(CC)CCc1ccc(-c2ccc(=O)n(C)n2)cc1` [Example 56], the Ki (on human H3 receptor; in test [1]) was 100 to 1000 nM each time.

Regarding `CCNCCc1ccc(-c2ccc(=O)n(C)n2)cc1` [Example 57], the Ki (on human H3 receptor; in test [1]) was 100 to 1000 nM each time.

In the case of `CC(=O)N1CCN(CCc2ccc(-c3ccc(=O)n(C)n3)cc2)CC1` [Example 58], the Ki (at human H3 receptor; in test [1]) was 100 to 1000 nM in each case.

`Cn1nc(-c2ccc(CCN3CCC3)cc2)ccc1=O` [Example 60]: the Ki (at human H3 receptor; in test [1]) was 100 to 1000 nM in each case.

For `CN(CCc1ccc(-c2ccc(=O)n(C)n2)cc1)C1CCC1` [Example 61], the Ki is less than 100 nM at human H3 receptor and 100 to 1000 nM in test [1].

With `CCN(CCc1ccc(-c2ccc(=O)n(C)n2)cc1)C1CCC1` [Example 62], the Ki (at human H3 receptor; in test [1]) was 100 to 1000 nM in each case.

For the compound `C[C@@H]1CCCN1CCc1ccc(-c2ccc(=O)n(C)n2)cc1` [Example 63], the Ki (at human H3 receptor; in test [1]) was less than 100 nM each time.

On to `Cn1nc(-c2ccc(CCN3CCCCC3)cc2)ccc1=O` [Example 64], for which the Ki (at human H3 receptor; in test [1]) was 100 to 1000 nM in each case.

`O=c1ccc(-c2ccc(CCN3CCCCC3)cc2)nn1-c1ccccc1` [Example 65]: the Ki (at human H3 receptor; in test [1]) was 100 to 1000 nM throughout.

Take `C[C@@H]1CCCN1CCc1ccc(-c2ccc(=O)n(-c3ccccc3)n2)cc1` [Example 66]: the Ki (at human H3 receptor; in test [1]) was less than 100 nM in each case.

The values are drawn from US20110098269A1, “Substituted Pyridazinone Derivatives as Histamine-3 (H3) Receptor Ligands” (Cephalon, Inc., priority 2008, published 2011).
